Results taken from publication PMC10775556, “Synthesis, antileishmanial, antimalarial evaluation and molecular docking study of some hydrazine-coupled pyrazole derivatives” (BMC Chemistry, 2024).
In brackets after ≈: the same amount, converted by molar mass. Several values for one entry are separate records, joined by “and”; a condition that tells them apart may be missing. Identical values can stand only once. Like-named read-outs stand apart in the source and are kept apart here.

How the values were obtained:
[1] = set-up: method as in PMID 25768697; settings: cited from earlier work
[2] = system: Leishmania aethiopica promastigotes; assay: In vitro antipromastigote (antileishmanial) assay, AlamarBlue; type: cell-based
Method: The viability of promastigotes can be estimated by microscopically counting live cells, measuring enzyme activities via the 3-(4,5-dimethyl-thiazol-2-yl)-2,5-diphenyl-tetrazolium bromide (MTT) assay, etc. The frequent use of these methods is hampered due to the lengthy and time-consuming procedures followed in the test. […] The extent of fluorescence produced by each sample is strongly correlated with the number of living cells.
A complete culture medium was prepared from RPMI-1640, 10% HIFCS, 1% penicillin–streptomycin, and 1% L-glutamine for the in vitro antipromastigote assay. The Leishmania aethiopica isolate was grown first on Novy-MacNeal-Nicolle (NNN) medium and then in tissue-culture flasks containing RPMI-1640 medium supplemented with 10% HIFCS and 1% 100 IU penicillin/mL-100 µg/mL streptomycin solution at 22 ℃ [35].
The entire test compound was dissolved in DMSO to a final concentration of 1 mg/mL. The final DMSO concentration was adjusted not to exceed v/v 1% to avoid its inhibitory effect against parasite proliferation or change in morphology. Six different concentrations of test compounds, ranging from 10 µg/mL to 0.04 µg/mL, were prepared by […] serial dilutions. Amphotericin B deoxycholate (with a concentration ranging from 0.5 µg/mL to 0.002 µg/mL) and miltefosine (with a concentration ranging from 40 µg/mL to 0.16 µg/mL) were used as a positive control and DMSO (v/v 1%) in complete media was used as a negative control to compare the antileishmanial activities of test compounds [36]. All the prepared drugs were stored at − 20 ℃ until used in the experiment.
The antileishmanial activity of the test compounds was evaluated in vitro against isolates of Leishmania aethiopica promastigotes. 100 µL of the parasite suspension containing 3 × 10^6 promastigotes per milliliter was added to 96-well plates. The six different concentrations of test compounds and reference drugs were then added in triplicate. DMSO in complete RPMI media was used as a negative control to compare the antileishmanial activities of the test compounds. After 24 h incubation, 20 µL of fluorochrome AlamarBlue® (12.5 mg resazurin dissolved in 100 mL of distilled water) was added to each well. Then, the absorbance of each well was measured after 4 h of incubation at wavelengths of 492 and 630 nm using an ELISA reader for the quantitative determination of viable cells. Finally, the IC50 values were computed from sigmoidal dose–response curves using GraphPad Prism 5.0 software (GraphPad Software, Inc., San Diego, CA, USA).

[3] = system: Plasmodium berghei ANKA strain; assay: In vivo antimalarial four-day suppressive test; set-up: species or system Swiss albino mice; settings: for % Parasitemia / Mean survival time: mean ± SD; for inhibition in vivo at 48.46 µmol/kg: Plasmodium berghei, in Mus musculus, 96 h, read-out: % Suppression; for Mean survival time: 48.46 µmol/kg per day (CQ 25 mg/kg), ND = no mouse death recorded during the study period
Source text: The four-day suppressive test was implemented to screen the antimalarial activity of the target compounds as it is effective in evaluating early infections and convenient to assess the prodrug effects of test compounds [30]. In this study, the in vivo antimalarial activity of the target compounds was investigated by using mice infected with Plasmodium berghei (achieve steady-state infection) at a dose of 48.4 µmol/kg per day. The results of the antimalarial activity screening of target compounds against the control groups were expressed based on mean parasitemia and percent inhibition of parasitemia (Table 2) which is known as a reliable parameter for in vivo antimalarial screening tests. […] While compounds 9, 10 and 11 containing amidic carbonyl group had less than 50% mean percent suppression compared to the positive control groups. Among the tested compounds, bis-[N,N-dimethylaminomethylene-4-(3-(4-methylphenyl)-4-(hydrazonomethylene)-1H-pyrazole-1-yl)benzenesulfonamide] […] On the other hand, there was an increase in the mean survival time (9.8 ± 1.3) of mice treated with a half dose ([…]) of compound 15, highlighting the potential dose-dependent toxicity associated with bis-structure due to cleavage of acid labile C = N bond and subsequent increase in concentration in the systemic circulation. […] This could be attributed to the presence of a primary amine group adjacent to the C = N bond that can increase the strength of binding interaction with the active site of the receptor by hydrogen bonding. Moreover, the hydrophobic interaction imparted by the methylated phenyl group with the amino acid residues in the enzyme pocket may be beneficial for the observed antimalarial activity of compound 14. The compounds containing C = O bond (9–12) near C = N had relatively lower antimalarial activity due to the electron-withdrawing effect and subsequent decrease in hydrogen bonding interactions with the different functional groups reside in the enzyme pocket.
The in vivo antimalarial activity of the synthesized compounds was determined using the four-day standard suppressive test using Swiss albino mice donated by the Ethiopian Health and Nutrition Institute, Addis Ababa, Ethiopia. Briefly, Swiss albino mice were infected with Plasmodium berghei ANKA strain (0.2 mL of 2 × 10^7 parasitized erythrocytes) through intraperitoneal injection. After 2 h of infection, the mice were weighed and randomly divided into nine groups of five mice per cage. Groups 1–7 received each test compound ([…]) dissolved in a vehicle containing 7% Tween 80, 3% ethanol, and water. Group 8 was treated with chloroquine phosphate (25 mg/kg) suspended in 7% Tween 80, 3% ethanol, and water which served as a positive control. Group 9 received 2 mL/100 g of the negative control (vehicle 7% Tween 80, 3% ethanol, and water). On day four (96 h post-infection), a blood smear was taken from the tail of each mouse, fixed with absolute ethanol, and stained with Giemsa stain. Then, the level of parasitemia was determined microscopically by counting four fields of approximately 100 erythrocytes per field. Finally, the antimalarial effects of control groups and test compounds were expressed in terms of blood parasitemia, percent suppression and mean survival time of mice.
The % suppression and % parasitemia in the antimalarial activity testing were computed using the formulas given below and the resulting data along with the mean survival time was analyzed using Microsoft office excel 2007. The variation in the values of suppressive test was assessed by using one-way analysis of variance (ANOVA) and p < 0.05 is considered as stastically significant.
Parasitemia(%)=Numberofinfectedredbloodcells/Numberoftotalredbloodcells×100
Suppression(%)=Parasitemiaintheuntreatedgroup-Parasitemiainthetreatedgroup/Parasitemiainuntreatedgroup×100

[4] = system: chloroquine-resistant RKL9 strains; settings: read-out: IC50 against chloroquine-resistant RKL9 strains; cited from earlier work
VERO cells = assay: In vitro cytotoxicity test; type: cell-based, African green monkey; settings: CC50 VERO cells / IC50 Leishmania aethiopica
Method: (§1) The cytotoxicity of compound 13 with promising antileishmanial activity was investigated in vitro against African green monkey kidney cells (VERO cells). In a 96-well plate, VERO cells (1 × 10^5 cells per well) were incubated in triplicates with different concentrations of compound 13 (0–100 µM) for 72 h at 37 ℃ incubator with 95% humidity and 5% CO2 and the cell viability was determined by measuring the optical density (OD) of formazan. […] The CC50 and IC50 values were computed using the formula: Growth inhibition (%) = (ODcontrol-ODtest/ODcontrol)×100 . In addition, the selectivity indices (SI) were computed using the formula SI = CC50/IC50.

[5] = In vitro cytotoxicity test; type: cell-based, African green monkey; settings: African green monkey, VERO cells (African green monkey kidney cells); normal VERO cells, 72 h, formazan OD
Method: as §1

[6] = In vivo acute toxicity test (oral and intraperitoneal); settings: mice
Method: The mice were weighed and divided into five groups of six mice per cage. After fasting them overnight, groups 1–4 received the test compound suspended in 1% acacia gum was administered orally at doses of 50, 100, 200, and 300 mg/kg. Group 5 (served as a control) was treated with the solvent (1% acacia gum) at a maximum dose of 1 mL/100 gm of body weight. […] Follow-up continued for 14 days with special attention for the first 24 h.

[7] = Leishmania aethiopica promastigotes, triplicate, 24 h incubation + 4 h AlamarBlue, read-out: IC50 Values (µg/mL), antipromastigote activity
[8] = Leishmania aethiopica promastigotes, molar form of the µg/mL values, read-out: IC50 Values (µM/mL), antipromastigote activity
[9] = P. berghei infected mice, day 4, 48.46 µmol/kg per day (CQ 25 mg/kg)
[10] = Leishmania aethiopica, value used for selectivity index, read-out: IC50 (µM) of antileishmanial activity (Table 3)

Structure (SMILES)	IC50 [2, 7] [µg/mL]	IC50 [2, 8] [µM]	% Parasitemia [3, 9] [%]	Mean survival time ([3]; P. berghei infected mice) [days]	inhibition in vivo at 48.46 µmol/kg [3, 9] [%]	further results
C[C@@H]1[C@H](O)[C@@H](C)/C=C/C=C/C=C/C=C/C=C/C=C/C=C/[C@H](O[C@@H]2O[C@H](C)[C@@H](O)[C@H](N)[C@@H]2O)C[C@@H]2O[C@](O)(C[C@@H](O)C[C@@H](O)[C@H](O)CC[C@@H](O)C[C@@H](O)CC(=O)O[C@H]1C)C[C@H](O)[C@H]2C(=O)O [Amphotericin B, Amphotericin B deoxycholate, reference compound]	0.047	0.035	–	–	–	IC50, antileishmanial activities [1]: 0.0472 µg/mL (≈ 0.0511 µM)
CCN(CC)CCCC(C)Nc1ccnc2cc(Cl)ccc12 (stereo not drawn) [CQ, Chloroquine phosphate, reference compound]	–	–	0	–	–	inhibition in vivo at 48.46 µmol/kg [3]: 100%; IC50 [4]: 192 nM
O=C(NN=Cc1cn(-c2ccc(Br)cc2)nc1-c1ccccc1)c1ccccc1O [Compound 9, Nʹ-[(1-(4-bromophenyl)-3-phenyl-1H-pyrazol-4-yl)methylene] salicylhydrazide]	0.084	0.256	34.7 ± 4.1	8.6 ± 1.8	< 50	–
CN(C)C=NS(=O)(=O)c1ccc(-n2cc(/C=N/NC(=O)c3ccccc3O)c(-c3ccc(Cl)cc3)n2)cc1 [Compound 10, Nʹ-[(3-(4-chlorophenyl)-1-((4-N,N-dimethylaminomethylenesulfonamido)phenyl)-1H-pyrazol-4-yl)methylene] salicylhydrazide]	0.207	0.45	33.0 ± 6.7	6.8 ± 0.7	< 50	–
Cc1ccc(-n2cc(C=NNC(=O)c3ccccc3O)c(-c3ccccc3)n2)cc1 [Compound 11, Nʹ-[(3-phenyl-1-(4-methylphenyl)-1H-pyrazol-4-yl)methylene] salicylhydrazide]	5.74	10.4	30.0 ± 6.7	8.7 ± 0.7	< 50	–
Cc1ccc(-c2nn(-c3ccc(S(=O)(=O)N=CN(C)C)cc3)cc2/C=N/NC(=O)c2ccccc2O)cc1 [Compound 12]	0.111	0.28	67.9 ± 3.7	7.8 ± 1.2	–	–
Cc1ccc(-c2nn(-c3ccc(S(=O)(=O)N=CN(C)C)cc3)cc2/C=N/Nc2ccccc2)cc1 [Compound 13, N,N-dimethylaminomethylene-4-[(3-(4-methylphenyl)-4-(phenylhydrazonomethylene))-1H-pyrazol-1-yl]benzenesulfonamide]	–	–	24.0 ± 1.7	9.5 ± 1.9	> 50	IC50 ([2]; Leishmania aethiopica, read-out: IC50 Values (µM/mL), antipromastigote activity): 0.033 µM; IC50 [2, 10]: 0.604 µM; fold more active than amphotericin B deoxycholate (antipromastigote) ([2]; ratio of IC50 values versus amphotericin B deoxycholate): ~2.6 fold; SI (selectivity index, CC50/IC50) (VERO cells): 194 and 194.88; CC50 at 72 h [5]: 118000 nM; intraperitoneal acute toxicity ([6]; intraperitoneal injection ≤ 140 mg/kg, within 24 h or the entire study period): devoid of any inherent dose-dependent toxicity or death; oral acute toxicity: death ([6]; oral 50, 100, 200 and 300 mg/kg, 14 days): devoid of any death at all dose; oral acute toxicity: physical and gross behavioral observations ([6]; oral, up to highest dose 300 mg/kg): no visible symptoms of toxicity
Cc1ccc(-c2nn(-c3ccc(S(N)(=O)=O)cc3)cc2/C=N/N)cc1 [Compound 14, 4-[3-(4-methylphenyl)-4-hydrazonomethylene-1H-pyrazol-1-yl] benzenesulfonamide]	3.26	6.71	15.5 ± 4.1	9.0 ± 2.0	–	–
Cc1ccc(-c2nn(-c3ccc(S(=O)(=O)N=CN(C)C)cc3)cc2C=NN=Cc2cn(-c3ccc(S(=O)(=O)N=CN(C)C)cc3)nc2-c2ccc(C)cc2)cc1 [Compound 15, Bis-[N,N-dimethylaminomethylene-4-(3-(4-methylphenyl)-4-(hydrazonomethylene)-1H-pyrazole-1-yl)benzenesulfonamide]]	0.181	0.441	5.0 ± 1.4	7.7 ± 1.4	–	mean survival time at half dose ([3]; P. berghei infected mice, half dose (24.2 µmol/mL)): 9.8 ± 1.3
CCCCCCCCCCCCCCCCOP(=O)([O-])OCC[N+](C)(C)C [Miltefosine, hexadecylphosphocholine, reference compound]	3.13	7.68	–	–	–	IC50, antileishmanial activities [1]: 3.1921 µg/mL (≈ 7.83 µM); IC50 [2, 10]: 7.9 µM; SI (selectivity index, CC50/IC50) (VERO cells): 12.63; CC50 at 72 h [5]: 99700 nM
